The numbers were not newly measured in patent US7160555B2, “Immediate release medicinal compositions for oral use” (Kissei Pharmaceutical Co., Ltd., priority 1999, dated 2007), which cites them from elsewhere.

The subject of this data set is blood sugar. The following applies: Japanese Patent Laid-Open No. 356459/1992.

“(2S)-2-benzyl-3-(cis-hexahydro-2-iso-indolinylcarbonyl)propionic acid”: the “lowering action of blood sugar” value is listed as “remarkable lowering action of blood sugar”.
